Measured values published in ChEMBL document CHEMBL1201862, “PubChem BioAssay data set” (2004).
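Cells were grown in 96-well plates and exposed to each compound for 48 hours at five concentrations; endpoints were interpolated linearly between bracketing concentrations, or set to the highest concentration if not reached. GI50 marks 50% less growth.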 The source made the active and inactive calls. No stated cut-off is given here; in the data, active = GI50 up to about 1.1 µM and inactive = higher.

Experiments:
Experiment in all cases: NCI anticancer screen, dose series, 48 h
ACHN = tested on: ACHN
EKVX = tested on: EKVX
HCT-15 = tested on: HCT-15
HOP-92 = tested on: HOP-92
HT-29 = tested on: HT-29
IGROV-1 = tested on: IGROV-1
K562 = tested on: K562
MCF7 = tested on: MCF7
NCI-H522 = tested on: NCI-H522
OVCAR-3 = tested on: OVCAR-3
OVCAR-4 = tested on: OVCAR-4
OVCAR-8 = tested on: OVCAR-8
SF-295 = tested on: SF-295
SN12C = tested on: SN12C
SNB-19 = tested on: SNB-19
T47D = tested on: T47D
UO-31 = tested on: UO-31
HOP-62 = tested on: HOP-62
SK-MEL-28 = tested on: SK-MEL-28
SR = tested on: SR

| Structure (SMILES) | GI50 (ACHN) | GI50 (EKVX) | GI50 (HCT-15) | GI50 (HOP-92) | GI50 (HT-29) | GI50 (IGROV-1) | GI50 (K562) | GI50 (MCF7) | GI50 (NCI-H522) | GI50 (OVCAR-3) | GI50 (OVCAR-4) | GI50 (OVCAR-8) | GI50 (SF-295) | GI50 (SN12C) | GI50 (SNB-19) | GI50 (T47D) | GI50 (UO-31) | GI50 (HOP-62) | GI50 (SK-MEL-28) | GI50 (SR) |
| --- | --- | --- | --- | --- | --- | --- | --- | --- | --- | --- | --- | --- | --- | --- | --- | --- | --- | --- | --- | --- |
| NC1c2c(Br)sc(N3CCCC3)c2C(=O)C1O (stereo not drawn) | > 50 µM (inactive) | > 50 µM (inactive) | > 50 µM | 26.2 µM (inactive) | > 50 µM (inactive) | > 50 µM (inactive) | > 50 µM (inactive) | > 50 µM (inactive) | > 50 µM (inactive) | > 50 µM (inactive) | > 50 µM (inactive) | > 50 µM (inactive) | > 50 µM (inactive) | > 50 µM (inactive) | > 50 µM (inactive) | > 50 µM (inactive) | > 50 µM (inactive) | – | – | – |
| C[C@@H]1S[C@H](c2c(Cl)cccc2Cl)N2Cc3ccccc3N=C12 | > 100 µM (inactive) | 42.9 µM (inactive) | > 100 µM | > 100 µM (inactive) | – | > 100 µM (inactive) | > 100 µM (inactive) | > 100 µM (inactive) | – | > 100 µM (inactive) | > 100 µM (inactive) | – | > 100 µM (inactive) | > 100 µM (inactive) | > 100 µM (inactive) | > 100 µM (inactive) | > 100 µM (inactive) | > 100 µM (inactive) | > 100 µM (inactive) | > 100 µM (inactive) |
| CSc1nc(=O)n(CCC#N)nc1SC | 38.8 µM (inactive) | > 100 µM (inactive) | 21.9 µM | – | 51.6 µM (inactive) | > 100 µM (inactive) | 25.6 µM (inactive) | 2.72 µM (inactive) | 25.6 µM (inactive) | 16.1 µM (inactive) | – | 59.6 µM (inactive) | > 100 µM (inactive) | 47.9 µM (inactive) | > 100 µM (inactive) | 24.3 µM (inactive) | 51.8 µM (inactive) | > 100 µM (inactive) | 14 µM (inactive) | 32.8 µM (inactive) |
| CCN(CC)CCOC(NC(C)=O)(c1ccccc1)c1ccccc1 | > 100 µM (inactive) | > 100 µM (inactive) | > 100 µM | > 100 µM (inactive) | > 100 µM (inactive) | > 100 µM (inactive) | – | > 100 µM (inactive) | – | – | > 100 µM (inactive) | > 100 µM (inactive) | > 100 µM (inactive) | > 100 µM (inactive) | > 100 µM (inactive) | > 100 µM (inactive) | > 100 µM (inactive) | > 100 µM (inactive) | > 100 µM (inactive) | > 100 µM (inactive) |
| O=C(CSCC(=O)N/N=C/c1ccncc1)N/N=C/c1ccncc1 | > 100 µM (inactive) | > 100 µM (inactive) | > 100 µM | > 100 µM (inactive) | > 100 µM (inactive) | > 100 µM (inactive) | > 100 µM (inactive) | > 100 µM (inactive) | > 100 µM (inactive) | > 100 µM (inactive) | > 100 µM (inactive) | > 100 µM (inactive) | > 100 µM (inactive) | > 100 µM (inactive) | > 100 µM (inactive) | > 100 µM (inactive) | > 100 µM (inactive) | > 100 µM (inactive) | > 100 µM (inactive) | – |
| O=C(NCCN(CCNC(=O)c1cccc(=O)n1O)CCN(CCNC(=O)c1cccc(=O)n1O)CCNC(=O)c1cccc(=O)n1O)c1cccc(=O)n1O | > 100 µM (inactive) | – | > 100 µM | > 100 µM (inactive) | 89.9 µM (inactive) | > 100 µM (inactive) | > 100 µM (inactive) | > 100 µM (inactive) | > 100 µM (inactive) | > 100 µM (inactive) | > 100 µM (inactive) | > 100 µM (inactive) | > 100 µM (inactive) | > 100 µM (inactive) | > 100 µM (inactive) | > 100 µM (inactive) | > 100 µM (inactive) | > 100 µM (inactive) | > 100 µM (inactive) | – |
| C/C(=N\Nc1nc2ccccc2[nH]1)c1ccc2ccccc2n1 | 3.15 µM (inactive) | 0.678 µM (active) | 1.29 µM | – | 0.948 µM (active) | 0.129 µM (active) | 2.39 µM (inactive) | 2.17 µM (inactive) | 2.33 µM (inactive) | 0.592 µM (active) | 1.85 µM (inactive) | 3.33 µM (inactive) | 2.49 µM (inactive) | 1.52 µM (inactive) | 2.75 µM (inactive) | 0.343 µM (active) | 1.06 µM (active) | 2.78 µM (inactive) | 3.79 µM (inactive) | 0.08 µM (active) |
| NC1=NCC(CN2CCCCC2)O1 (stereo not drawn) | > 100 µM (inactive) | > 100 µM (inactive) | > 100 µM | – | > 100 µM (inactive) | > 100 µM (inactive) | > 100 µM (inactive) | > 100 µM (inactive) | > 100 µM (inactive) | > 100 µM (inactive) | – | > 100 µM (inactive) | > 100 µM (inactive) | > 100 µM (inactive) | > 100 µM (inactive) | > 100 µM (inactive) | > 100 µM (inactive) | > 100 µM (inactive) | > 100 µM (inactive) | > 100 µM (inactive) |
